The source of these data is US20230145868A1, “UREA INHIBITORS OF MICRO-RNA” (Board of Regents, The University of Texas System, priority 2020, published 2023).

The structures appear in SMILES notation. Read-outs that look alike come from different tables or passages of the source.

Assay [1] concerns AGS cell line. Nature of the assay: Cell proliferation assay (WST-8 or MTS), AGS. In kind it is cell-based, human. The protocol: IC50 dose-response curves were determined using the cell proliferation assay system. Briefly, 5,000 or 10,000 cells of each cell line were plated in 96-well microculture plates in replicates of either 4 or 6. When cells became adherent, either 5 or 10 sequentially decreasing doses of the small molecule miRNA inhibitor were diluted into new media and added to individual wells. After either 24 or 48 hours, of a tetrazolium salt such as MTS, MTT, or WST-8 was added to each well at the same time of day as treatment and incubated for either 2 or 3 h at 37° C. The OD, measuring at the appropriate wavelength for the dye, was read at on a microplate spectrophotometer.
Cell proliferation is determined using a colorimetric assay. A tetrazolium salt such as MTS, MTT, or WST-8 is reduced by dehydrogenase activities in cells to give a formazan dye, which is soluble in the tissue culture media. The amount of the formazan dye (generated by the activities of dehydrogenases in cells, and directly proportional to the number of living cells) is measured after 3 h of incubation. The OD is read at 450 nm on a microplate spectrophotometer and growth values (%) are calculated as (OD treated cells/OD untreated cells)×100. The experiments are performed in triplicate. Cell viability is also tested by bromodeoxyuridine (BrdU) test according to the instructions. 2000 MM231, MCF7 and HepG2 cells are seeded to 96-well plate. After 24 h, 10 μM DMSO or linifanib is added to each well. The OD is read at 450/550 nm on a microplate spectrophotometer, after one to seven days of the treatment. The experiments are performed in triplicate.

For assay [2], the system named is AGS cell line. Description: Migration assay, AGS. In kind it is cell-based, human. As to conditions: vs DMSO.
The test system of a further assay is pre-miR-10b. Nature of the assay: RT-qPCR of precursor miR-10b. Type of assay: cell-based, human. As to conditions: normalized to U6, vs DMSO. The protocol:
Potential small molecule miRNA inhibitors were tested in MCF7 cells, a metastatic cell line (MM231) and an HCC cell line (HepG2) through RT-qPCR. Cells were seeded in 12-well plates 24 h before treatments at a confluence of 50-60%. They were treated at a concentration of 10 μM linifanib (positive control) or DMSO (negative control), and RNA was collected after 24 and 48 h. MicroRNA expression was tested using TaqMan microRNA assay (Applied Biosystems). The cDNA was synthesized using TaqMan Reverse Transcription Reagents kit (Applied Biosystems) and employed for quantitative RT-qPCR analysis together with TaqMan probes and SsoFastSupermix (Bio-rad). Primers and probes were purchased for hsa-miR-10b, hsa-pri-miR-10b, U6, and U48 snRNA that was used as an internal control.
To detect the levels of the precursor sequences, cDNA was synthesized using the SuperScript III cDNA kit (Invitrogen). Diluted cDNA was used for RT-qPCR analysis using iQ SYBR Green Supermix (Bio-Rad) with primers designed by in-house. Experiments were performed in triplicate; treated samples were compared to the DMSO-treated controls and normalized to the internal control. Relative expression levels were calculated using the 2-ΔCt method.
For orientation: In qPCR the cycle at which signal appears reflects the starting amount.

The subject of the next assay is HOXD10. Description: Western blot, HOXD10 expression. In kind it is cell-based, human. As to conditions: vs DMSO. How it is done:
Proteins are collected from cultured cells and lysed with 10× Lysis Buffer (Cell Signaling) freshly supplemented with a complete protease inhibitor cocktail and phosphatase inhibitors (Sigma). Bradford assay is used to measure protein concentration. Proteins are separated by polyacrylamide gel (Bio-rad) electrophoresis and were transferred to a 0.2 μm nitrocellulose membrane (Bio-rad). Quantification of protein expression was conducted using the image analysis software ImageJ.

The next assay concerns miR-10b. Description: Luciferase reporter assay of miR-10b inhibition, MDA-MB-231 cells. In kind it is cell-based. Particulars: Homo sapiens, MDA-MB-231, 48 h. The text has this:
To identify miR-10b inhibitors, a luciferase reporter system was designed with complementary oligonucleotides for miR-10b.This luciferase reporter would repress Renilla luciferase signal in the presence of a functional mature miR-10b. However, in the presence of a small molecule that can inhibit mature miR-10b expression or affect its downstream function, the luciferase expression is restored again.
The PsiCHECK™-2 luciferase reporter vector was acquired from Promega™, Complementary oligonucleotides for hsa-miR-10b were designed based on the mature miRNA sequence and obtained from Thermo Fisher Scientific. In the design of the microRNA target sequence, several base pairs were added to have two different restriction sites recognizable by the enzyme SgfI at one side, and PmeI on the other (present in the vector as well). In addition, the insert was designed with a restriction site for SacI enzyme in order to have an additional site to digest the vector when monitoring colonies for the presence/absence of the insert. The designed oligonucleotides were annealed as follows: Complementary strands were mixed at a 1:1 molar ratio in a micro centrifuge tube. The mixture was diluted to a final concentration of 1 pmol/μl with a buffer solution of 10 mM Tris, 1 mM EDTA, and 50 mM NaCl (pH 8.0). Mixes were incubated at 95° C. for 5 min, and then the heat was reduced gradually for 70 min, until reaching 4° C. The annealed oligonucleotides were digested along with the PsiCHECK™2 vector with SgfI and PmeI and ligated at the 3′-UTR (downstream) of the Renilla luciferase reporter gene in the PsiCHECK™-2vector. Insert sequences were further confirmed in two ways: enzymatic digestion and sequencing.
MCF7 cells were seeded 24 h prior to transfection in 96 well plates (2.0×10^4 cells/well). For testing the sensitivity of the assay, antagomiRs and pre-miRs against miR-10b were used at a final concentration of 100 nM. For testing small molecule miRNA inhibitors, the compounds of interest were added to a final concentration of 10 μM. The assay was done in MCF7 or MDA-MB-231 cells at approximately 60% confluence using Lipofectamine in Opti-Mem media with the final vector concentration of 250 ng/mL. All transfections were performed in triplicate for statistical analysis. The cells were incubated at 37° C. for 6 h, followed by replacement of the transfected media with fresh media. After 48 h incubation, the media was removed, and cells were lysed and assayed with a Dual Luciferase Assay Kit (Promega) using a Vi-Tech luminometer. The ratio of Renilla to firefly luciferase expression was calculated for each of the triplicates.

Setting [3] is: Table 5, MDA-MB-231, 10 μM compound, vs negative control (DMSO), mean of triplicate, read-out: n-fold increase in luciferase expression, Mean.
Where [4] appears, read: Table 5, MDA-MB-231, 10 μM compound, vs negative control (DMSO), replicate #1, read-out: n-fold increase in luciferase expression, #1.
[5] abbreviates: Table 5, MDA-MB-231, 10 μM compound, vs negative control (DMSO), replicate #2, read-out: n-fold increase in luciferase expression, #2.
The mark [6] stands for this setting: Table 5, MDA-MB-231, 10 μM compound, vs negative control (DMSO), replicate #3, read-out: n-fold increase in luciferase expression, #3.
The mark [7] stands for this setting: Table 7, MDA-MB-231, second biological replicant, 10 μM compound, mean of triplicate, read-out: n-fold increase in luciferase expression, Mean.
Setting [8] is: Table 7, MDA-MB-231, second biological replicant, 10 μM compound, replicate #1, read-out: n-fold increase in luciferase expression, #1.
[9] abbreviates: Table 7, MDA-MB-231, second biological replicant, 10 μM compound, replicate #2, read-out: n-fold increase in luciferase expression, #2.
[10] abbreviates: Table 7, MDA-MB-231, second biological replicant, 10 μM compound, replicate #3, read-out: n-fold increase in luciferase expression, #3.

With `Cc1ccc(F)c(NC(=O)Nc2ccc(-c3cncnc3)cc2)c1` [Example 2, 1-(2-fluoro-5-methylphenyl)-3-(4-(pyrimidin-5-yl)phenyl)urea], the proliferation result in the assay with AGS cell line [1] (10 μM, 5 μM and 2 μM, vs DMSO) is “reduced proliferation”. In addition, the migration entry in the assay with AGS cell line [2] is “decreased migration”. The “expression of pre-miR-10b” value in the assay with pre-miR-10b (AGS gastric cell line) and with pre-miR-10b (AsPC1 pancreatic cell line) was “increased expression of pre-miR-10b” throughout. For the same molecule, the “HOXD10 expression (Western blot)” value in the assay with HOXD10 (AGS cell line) is recorded as “upregulated”. Moreover, the fold induction at 10 µM was found to be 1.58 with miR-10b (setting [3]); 1.45 in the assay on miR-10b (setting [4]); 1.9 with miR-10b (setting [5]); 1.38 in the assay with miR-10b (setting [6]); 2.13 with miR-10b (setting [7]); 2.38 with miR-10b (setting [8]). For the same molecule, the fold induction at 10 µM with miR-10b (setting [9]) amounted to 1.88; with miR-10b (setting [10]) it was 2.15.

On to `Cc1ccc(F)c(NC(=O)Nc2ccc(-c3cccc4cn[nH]c34)cc2)c1` [Example 4, 1-(4-(1H-indazol-7-yl)phenyl)-3-(2-fluoro-5-methylphenyl)urea], for which, in the assay on AGS cell line [1] (10 μM, vs DMSO), the “cell viability (proliferation ability)” value was “statistically significant effect”. Besides, the “proliferation (MTS), every 24 h over 96 h” value in the assay with AGS cell line [1] (5 and 10 μM, beginning at 48 h of treatment) was “significant difference in proliferation”. The migration result in the assay with AGS cell line [2] was “decreased migration”. Moreover, the “expression of pre-miR-10b” value in the assay on pre-miR-10b (AGS gastric cell line) and with pre-miR-10b (AsPC1 pancreatic cell line) was “increasing precursor miRNA transcript” each time. Besides, the “HOXD10 expression (Western blot)” value in the assay with HOXD10 (AGS cell line) and in the assay with HOXD10 (AsPC1 cell line) was “upregulated” in each case. Further, the fold induction at 10 µM with miR-10b (setting [3]) turned out to be 1.43; in the assay on miR-10b (setting [4]), 1.36; with miR-10b (setting [5]), 1.7; in the assay on miR-10b (setting [6]), 1.24; with miR-10b (setting [7]), 1.55; in the assay with miR-10b (setting [8]), 1.81. The results for the fold induction at 10 µM in the assay on miR-10b (setting [9]) and with miR-10b (setting [10]) were 1.8 and 1.05, respectively.
